Measured values: PubChem BioAssay (NCI)
“And” between values parts separate entries of the source, which are not always exact repeats. Identical values can stand only once.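 Growth conditions: 96-well plates. Treatment: test compound, 48 hours, 5 concentrations. Analysis: linear interpolation between bracketing concentrations; unreached endpoints set to highest concentration. At the GI50, growth is halved. Definition used: TGI = concentration required for complete inhibition of growth.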

What was measured:
Assay in all cases: NCI tumour cell line growth inhibition, 48 h
RXF-631 renal = tested on: RXF-631 renal
DMS 114 small cell lung = tested on: DMS 114 small cell lung
DLD-1 colon = tested on: DLD-1 colon
KM20L2 colon = tested on: KM20L2 colon
DMS 273 small cell lung = tested on: DMS 273 small cell lung
SNB-78 CNS = tested on: SNB-78 CNS
MDA-N = tested on: MDA-N
XF 498 CNS = tested on: XF 498 CNS
HOP-18 NSCLC = tested on: HOP-18 NSCLC

Q: Which results are given for `O=C(N/N=C(/c1nc2ccc(Cl)cc2[nH]c1=O)C(O)c1ccc(Cl)cc1Cl)c1ccncc1` (stereo not given)?
A: TGI (RXF-631 renal): > 100 µM; TGI (DMS 114 small cell lung): > 100 µM; TGI (DLD-1 colon): > 100 µM; TGI (KM20L2 colon): > 100 µM; TGI (DMS 273 small cell lung): > 100 µM; TGI (SNB-78 CNS): > 100 µM

Q: With `O=C(c1ccccc1)C1C(C(=O)c2ccccc2)N1Cc1ccccc1` (stereo not given) as the molecule, how does the TGI (MDA-N) read?
A: 37.4 µM

Q: What does the source list for `Cn1cnc([N+](=O)[O-])c1Sc1ccccn1`?
A: TGI (RXF-631 renal): > 100 µM; TGI (DMS 114 small cell lung): > 100 µM; TGI (XF 498 CNS): > 100 µM; TGI (HOP-18 NSCLC): 96.1 µM; TGI (DLD-1 colon): > 100 µM; TGI (DMS 273 small cell lung): > 100 µM; TGI (SNB-78 CNS): > 100 µM

Q: For `CCOC1OCCCC1Br` (stereo not given), which TGI (MDA-N) is on record?
A: > 100 µM

Q: For `COc1ccccc1/C=C\c1cnnc2ccccc12`, which TGI (MDA-N) is on record?
A: 9.66 µM

Q: For `COC(=O)c1c[nH]c(=O)[nH]c1=O`, which TGI (MDA-N) is on record?
A: > 100 µM

Q: `O=c1[nH]cc(CS(=O)(=O)Cc2c[nH]c(=O)[nH]c2=O)c(=O)[nH]1` was tested. Which TGI (MDA-N) did it give?
A: > 100 µM

Q: How did the GI50 (MDA-N) turn out when `CN(C)c1ccc(/C=C2\C[C@H]3[C@@H]4CC=C5C[C@@H](N6CCCC6)CC[C@]5(C)[C@H]4CC[C@]3(C)[C@H]2O)cc1` was run?
A: 2.87 µM

Q: What about the TGI (MDA-N) of the same molecule?
A: 2.34 µM and 8.6 µM

Q: For `CCC1C(C)c2c([nH]c3ccccc23)C2C(=O)N(c3ccccc3)C(=O)C21` (stereo not given), which TGI (RXF-631 renal) is on record?
A: 26.3 µM

Q: What about the TGI (DMS 114 small cell lung) of the same molecule?
A: 29.7 µM

Q: And the TGI (XF 498 CNS)?
A: 36 µM

Q: What about the TGI (DLD-1 colon) of the same molecule?
A: 34.9 µM

Q: And the TGI (DMS 273 small cell lung)?
A: 37.4 µM

Q: And the TGI (SNB-78 CNS)?
A: 67.6 µM

Q: For `O=NC1c2cccc3cccc(c23)C1N=O` (stereo not given), which TGI (MDA-N) is on record?
A: 25.4 µM

Q: Which TGI (DMS 114 small cell lung) does the source give for `Cc1ccc(S(=O)(=O)N(/N=C(\N)Oc2ccc(Cl)cc2)C(=N)Oc2ccc(Cl)cc2)cc1` here?
A: > 100 µM

Q: And the TGI (XF 498 CNS)?
A: > 100 µM

Q: And the TGI (HOP-18 NSCLC)?
A: > 100 µM

Q: What about the TGI (DLD-1 colon) of the same molecule?
A: > 100 µM

Q: And the TGI (KM20L2 colon)?
A: > 100 µM

Q: What about the TGI (DMS 273 small cell lung) of the same molecule?
A: > 100 µM

Q: What about the TGI (SNB-78 CNS) of the same molecule?
A: > 100 µM

Q: `O=C(CC(=O)N1N=C(c2ccccc2)C(N=Nc2ccc(C(=O)O)cc2)C1=O)Nc1ccc(F)cc1` (stereo not given) was tested. Which TGI (RXF-631 renal) did it give?
A: > 100 µM

Q: What about the TGI (DMS 114 small cell lung) of the same molecule?
A: > 100 µM

Q: And the TGI (XF 498 CNS)?
A: 93.4 µM

Q: And the TGI (DLD-1 colon)?
A: > 100 µM

Q: What about the TGI (KM20L2 colon) of the same molecule?
A: > 100 µM

Q: And the TGI (DMS 273 small cell lung)?
A: 78.7 µM

Q: And the TGI (SNB-78 CNS)?
A: > 100 µM

Q: With `Cc1nc(C)c(C(=O)Nc2cccc3c2C(=O)NC3=O)cc1C(=O)Nc1cccc2c1C(=O)NC2=O` as the molecule, how does the TGI (DMS 114 small cell lung) read?
A: > 100 µM

Q: And the TGI (XF 498 CNS)?
A: > 100 µM

Q: And the TGI (HOP-18 NSCLC)?
A: > 100 µM

Q: And the TGI (DLD-1 colon)?
A: > 100 µM

Q: What about the TGI (KM20L2 colon) of the same molecule?
A: > 100 µM

Q: And the TGI (DMS 273 small cell lung)?
A: > 100 µM

Q: And the TGI (SNB-78 CNS)?
A: > 100 µM

Q: What does the source list for `N/C(=N\NS(=O)(=O)c1ccccc1)Oc1ccc(Cl)cc1`?
A: TGI (DMS 114 small cell lung): > 100 µM; TGI (XF 498 CNS): > 100 µM; TGI (HOP-18 NSCLC): > 100 µM; TGI (DLD-1 colon): > 100 µM; TGI (KM20L2 colon): > 100 µM; TGI (DMS 273 small cell lung): > 100 µM; TGI (SNB-78 CNS): > 100 µM

Q: `O=C(O)c1c(O)c2cc(Br)ccc2oc1=O` was tested. Which TGI (MDA-N) did it give?
A: > 100 µM

Q: For `Nc1[nH]c(=O)ncc1F`, which TGI (MDA-N) is on record?
A: > 100 µM

Q: For `O=C(c1cc(O)ccc1O)c1ccccc1C(Cl)(Cl)Cl`, which TGI (DMS 114 small cell lung) is on record?
A: > 100 µM

Q: And the TGI (XF 498 CNS)?
A: 84.2 µM

Q: And the TGI (HOP-18 NSCLC)?
A: > 100 µM

Q: And the TGI (KM20L2 colon)?
A: > 100 µM

Q: What about the TGI (DMS 273 small cell lung) of the same molecule?
A: > 100 µM

Q: And the TGI (SNB-78 CNS)?
A: > 100 µM

Q: For `COc1ccc(C2OC(=O)c3c2ccc2ccccc32)c(C)c1` (stereo not given), which TGI (MDA-N) is on record?
A: 4.34 µM

Q: What does the source list for `N#Cc1cccc(NC(=O)c2ccc(C(=O)O)c(C(=O)c3ccc(C(=O)O)c(C(=O)Nc4cccc(C#N)c4)c3)c2)c1`?
A: TGI (DMS 114 small cell lung): > 100 µM; TGI (XF 498 CNS): > 100 µM; TGI (HOP-18 NSCLC): > 100 µM; TGI (DLD-1 colon): > 100 µM; TGI (KM20L2 colon): > 100 µM; TGI (DMS 273 small cell lung): > 100 µM; TGI (SNB-78 CNS): > 100 µM

Q: How did the TGI (MDA-N) turn out when `S=c1nc[nH]c2c1ncn2Cc1ccco1` was run?
A: > 100 µM

Q: How did the TGI (RXF-631 renal) turn out when `COc1ccc2cccc(C(=O)c3ccc(C)c4c3CCC4)c2c1` was run?
A: 43.9 µM

Q: What about the TGI (DMS 114 small cell lung) of the same molecule?
A: > 100 µM

Q: And the TGI (HOP-18 NSCLC)?
A: > 100 µM

Q: And the TGI (DLD-1 colon)?
A: > 100 µM

Q: And the TGI (KM20L2 colon)?
A: > 100 µM

Q: What about the TGI (DMS 273 small cell lung) of the same molecule?
A: 70 µM

Q: How did the TGI (DMS 114 small cell lung) turn out when `CCOC(=O)C1N(S(=O)(=O)c2ccc(C)cc2)CCC12c1ccccc1N(C(C)=O)C2C(/C=C/C(=O)OC)=C/C(=O)OC` (stereo not given) was run?
A: > 100 µM

Q: And the TGI (XF 498 CNS)?
A: > 100 µM

Q: What about the TGI (DLD-1 colon) of the same molecule?
A: > 100 µM

Q: And the TGI (KM20L2 colon)?
A: > 100 µM

Q: What about the TGI (DMS 273 small cell lung) of the same molecule?
A: > 100 µM

Q: What about the TGI (SNB-78 CNS) of the same molecule?
A: > 100 µM

Q: Which TGI (MDA-N) does the source give for `S=c1nc(-c2nc(=S)[nH]c3c2CCCCCCCCCC3)c2c([nH]1)CCCCCCCCCC2` here?
A: > 100 µM

Q: What does the source list for `C/C1=C\[C@H](C)C[C@H](C)OC(=O)C[C@H](c2ccc(O)cc2)NC(=O)[C@@H](Cc2c(Br)[nH]c3ccccc23)N(C)C(=O)[C@H](C)NC(=O)[C@@H](C)C1`?
A: GI50 (RXF-631 renal): 0.047 µM; GI50 (DMS 114 small cell lung): 0.0424 µM; TGI (DMS 114 small cell lung): 0.837 µM and 1.56 µM; TGI (MDA-N): 2.83 µM; GI50 (XF 498 CNS): 0.0249 µM; TGI (XF 498 CNS): 0.448 µM and 0.0585 µM; GI50 (DLD-1 colon): 0.148 µM; TGI (DLD-1 colon): 2.39 µM; GI50 (KM20L2 colon): 0.0277 µM; TGI (KM20L2 colon): 10.7 µM; TGI (DMS 273 small cell lung): 0.83 µM; GI50 (SNB-78 CNS): 0.0339 µM; TGI (SNB-78 CNS): 0.795 µM and 0.163 µM

Q: What does the source list for `O=C1c2ccccc2C(=O)c2c(NCCCNCCO)ccc(NCCCNCCO)c21`?
A: TGI (RXF-631 renal): > 100 µM; TGI (DMS 114 small cell lung): 25.2 µM; TGI (MDA-N): 20 µM; TGI (XF 498 CNS): 27 µM; TGI (HOP-18 NSCLC): 67.2 µM; TGI (KM20L2 colon): 19.9 µM; TGI (SNB-78 CNS): 30.8 µM
